This passage reports outcome results from PubChem BioAssay AID2202554 (NIEHS Division of Translational Toxicology (DTT)).

Inconclusive results are not listed. Activity calls are given as the source filed them. No rule for the calls is given here.

For this series, the system named is S. typhimurium/E. coli reverse mutation, colony counts. In words: Bacterial reverse mutation test (aka Ames test) summary data. Put shortly:
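S. typhimurium his⁻ strains (TA97–TA1538) and E. coli WP2 uvrA pKM101 trp⁻, dosed over a range with or without rat, hamster or mouse liver S9. Preincubated 20 min at 37° C (or plate incorporation), plated in agar, incubated usually two days. Revertant colonies counted against negative controls.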
In general terms: In the Ames test, an excess of revertant colonies over the control signals mutagenicity.
For `Cc1ccc(C)c([N+](=O)[O-])c1`, the outcome was “active; positive”.

On to `CCCCCCCCCCCCOCC1CO1` (stereo unspecified), for which the outcome was “inactive; negative”.

As for `Cc1ccc(N)cc1O`, the outcome is “active; positive”.

Take `C=CCc1ccc(OC)cc1`: the outcome was “inactive; negative”.

As for `O=[N+]([O-])C(Br)=Cc1ccccc1`, the outcome is “active; positive”.

In the case of `CCCCCCCCOc1ccc(C(=O)O)cc1`, the outcome was “inactive; negative”.

On to `CCOC(=O)CC`, for which the outcome is “inactive; negative”.

Consider `CCN`, for which the outcome is “inactive; negative”.

With `NC(=NCCCCCCN=C(N)/N=C(\N)Nc1ccc(Cl)cc1)/N=C(\N)Nc1ccc(Cl)cc1`, the outcome was “inactive; negative”.

As to `Nc1ccccc1`, the outcome is “inactive; negative”.

`CC(=O)Oc1ccccc1C(=O)O`: the outcome is “inactive; negative”.

On to `Cc1ccc(C(=O)O)cc1[N+](=O)[O-]`, for which the outcome is “active; positive”.

On to `CCCCNS(=O)(=O)c1ccccc1`, for which the outcome is “inactive; negative”.

Regarding `CC(C)Cc1nccs1`, the outcome was “active; positive”.

As to `CCN(CC)c1ccc(N=O)c(O)c1`, the outcome was “inactive; negative”.

Consider `COc1cc(-c2ccc(N=Nc3cc(S(=O)(=O)O)c4ccccc4c3O)c(OC)c2)ccc1N=Nc1cc(S(=O)(=O)O)c2ccccc2c1O`, for which the outcome was “inactive; negative”.

Consider `COc1cc(S(=O)(=O)O)c(C)cc1N=Nc1c(O)ccc2cc(S(=O)(=O)O)ccc12`, for which the outcome was “inactive; negative”.

Turning to `COc1cc(N)ccc1C`, the outcome is “active; positive”.

Turning to `CCCCCCCCCCC1CO1` (stereo unspecified), the outcome is “inactive; negative”.

With `Cc1ccccc1C#N`, the outcome is “inactive; negative”.

Regarding `CC1=CC[C@H]2C(C)=CC[C@@H](C(C)C)[C@@H]2C1`, the outcome is “inactive; negative”.

As for `CCN(CC)N=O`, the outcome is “active; positive”.

In the case of `CCN(CC)c1cccc(O)c1`, the outcome was “active; positive”.

With `C=C(C)c1ccccc1`, the outcome is “inactive; negative”.

Take `CC(=O)C=Cc1ccccc1`: the outcome is “active; positive”.

Take `Brc1cccc(-c2ccccc2)c1`: the outcome is “inactive; negative”.

As to `CCCCCCCCCCCC(C)=O`, the outcome was “inactive; negative”.

For the compound `CC/C(=C(/CC)c1ccc(O)cc1)c1ccc(O)cc1`, the outcome was “inactive; negative”.

Regarding `COc1ccc(N)c(C)c1`, the outcome is “active; positive”.

`CO/N=C(\C(=O)N[C@@H]1C(=O)N2C(C(=O)O)=C(COC(N)=O)CS[C@H]12)c1ccco1`: the outcome is “inactive; negative”.

Regarding `Cc1cc(O)ccc1Cl`, the outcome was “inactive; negative”.

As for `Cc1c(N)cccc1Cl`, the outcome is “inactive; negative”.

Consider `CC(=O)C=CC1=C(C)CCCC1(C)C`, for which the outcome was “inactive; negative”.

Take `O=C1NS(=O)(=O)c2ccccc21`: the outcome is “inactive; negative”.

Turning to `Cc1ccc([N+](=O)[O-])c(C(=O)O)c1`, the outcome was “active; positive”.

For the compound `CCCCC(CC)CNCC(CC)CCCC` (stereo unspecified), the outcome was “inactive; negative”.

For `Clc1cc(Cl)c(Cl)cc1Cl`, the outcome was “inactive; negative”.

In the case of `Nc1ccc(N=Nc2ccccc2)cc1`, the outcome is “active; positive”.

For `Brc1ccccc1`, the outcome is “inactive; negative”.

With `CC(C)N`, the outcome was “inactive; negative”.

For `Nc1c(N=Nc2ccc(-c3ccc(N=Nc4ccc(O)cc4)cc3)cc2)c(S(=O)(=O)O)cc2cc(S(=O)(=O)O)c(N=Nc3ccccc3)c(O)c12`, the outcome is “active; positive”.

Take `CC(=O)CC(C)(C)O`: the outcome was “inactive; negative”.

With `Oc1ccc(Cl)cc1Sc1cc(Cl)ccc1O`, the outcome is “inactive; negative”.

Regarding `O=C(Nc1cccc2c(=O)c3c(ccc4c5cc(NC(=O)c6ccccc6)c6c(=O)c7ccccc7c(=O)c6c5[nH]c43)c(=O)c12)c1ccccc1`, the outcome is “inactive; negative”.

On to `Nc1nc(=S)c2[nH]cnc2[nH]1`, for which the outcome is “active; positive”.

As for `NC(=O)NNC(N)=O`, the outcome is “inactive; negative”.

For `C#CCO`, the outcome is “active; positive”.

Take `CCCCOCCOP(=O)(OCCOCCCC)OCCOCCCC`: the outcome is “inactive; negative”.

Regarding `CC(C)=O`, the outcome was “inactive; negative”.

As to `C=CCN(CC=C)CC=C`, the outcome was “inactive; negative”.

For `COc1ccc(C(Cl)=C(c2ccc(OC)cc2)c2ccc(OC)cc2)cc1`, the outcome was “inactive; negative”.

In the case of `Nc1nc(=O)n([C@@H]2CS[C@H](CO)O2)cc1F`, the outcome was “inactive; negative”.

On to `FC(F)(F)c1ccccc1Cl`, for which the outcome was “inactive; negative”.

Regarding `C=C(Cl)CSC(=S)N(CC)CC`, the outcome was “active; positive”.

Turning to `CCCCCCCCCCCCCl`, the outcome is “inactive; negative”.

Consider `c1ccc2[nH]cnc2c1`, for which the outcome is “inactive; negative”.

Turning to `COC(=O)c1ccccc1O`, the outcome was “active; weakly positive”.

As for `N#CCc1ccccc1[N+](=O)[O-]`, the outcome is “active; positive”.

Turning to `c1ccc(Nc2ccc(Nc3ccccc3)cc2)cc1`, the outcome is “active; positive”.

For `CNc1ccc2nc3ccc(=[N+](C)C)cc-3sc2c1`, the outcome is “active; positive”.

For the compound `NNC(N)=S`, the outcome is “inactive; negative”.

For the compound `CC(C)Oc1ccc(Nc2ccccc2)cc1`, the outcome was “inactive; negative”.

With `Cc1cc(C(=O)O)ccc1[N+](=O)[O-]`, the outcome was “active; positive”.

Turning to `Nc1ccc(S(=O)(=O)O)cc1`, the outcome was “inactive; negative”.

In the case of `CCCNCCC`, the outcome is “inactive; negative”.

On to `CCCCO`, for which the outcome is “inactive; negative”.

Regarding `CC1=C(/C=C/C(C)=C/C=C/C(C)=C\C=O)C(C)(C)CCC1`, the outcome is “active; weakly positive”.

In the case of `O=S(=O)(O)c1ccc(N=Nc2cc(S(=O)(=O)O)c3ccccc3c2O)c2ccccc12`, the outcome was “inactive; negative”.

Turning to `ClSC(Cl)(Cl)Cl`, the outcome was “active; positive”.

With `C=CC(=O)NCCNC(=O)C=C`, the outcome is “active; positive”.

Turning to `Cc1ccc(Cl)cc1`, the outcome is “inactive; negative”.

In the case of `CCc1c(Br)c(Br)c(Br)c(Br)c1Br`, the outcome was “inactive; negative”.

For the compound `CCCCC`, the outcome is “inactive; negative”.

On to `CCCCCCCCCCCCOS(=O)(=O)O`, for which the outcome was “inactive; negative”.

Take `N[C@H](Cc1ccccc1)C(=O)O`: the outcome is “inactive; negative”.

For `CCO`, the outcome is “inactive; negative”.

Consider `ClCc1cccnc1`, for which the outcome is “active; positive”.

Regarding `CCOc1ccc(NC(N)=O)cc1`, the outcome is “inactive; negative”.

Take `O=C(OOC(=O)c1ccccc1)c1ccccc1`: the outcome is “inactive; negative”.

Take `ClCCCCl`: the outcome was “active; positive”.

On to `CN(C)CCCN`, for which the outcome is “inactive; negative”.

Take `O=[N+]([O-])c1ccccc1CCO`: the outcome was “active; positive”.

Turning to `CN(C)C(=O)Nc1cccc(C(F)(F)F)c1`, the outcome was “inactive; negative”.

For the compound `O=C(O)C1=NN(c2ccc(S(=O)(=O)O)cc2)C(=O)C1N=Nc1ccc(S(=O)(=O)[O-])cc1.O=C(O)C1=NN(c2ccc(S(=O)(=O)O)cc2)C(=O)C1N=Nc1ccc(S(=O)(=O)[O-])cc1.O=C(O)C1=NN(c2ccc(S(=O)(=O)O)cc2)C(=O)C1N=Nc1ccc(S(=O)(=O)[O-])cc1.[Al+3]` (stereo unspecified), the outcome was “inactive; negative”.

With `CN(C)c1nc(N(C)C)nc(N(C)C)n1`, the outcome was “inactive; negative”.

For `CCCCC(CC)COP(=O)(OCC(CC)CCCC)OCC(CC)CCCC` (stereo unspecified), the outcome was “inactive; negative”.

Regarding `O=c1[nH]cnc2[nH]ncc12`, the outcome is “active; weakly positive”.

Consider `ClCCOCCCl`, for which the outcome is “active; weakly positive”.

Take `CCc1cccc(N)c1`: the outcome is “inactive; negative”.

Regarding `O=C1C=CCCC1`, the outcome is “inactive; negative”.

Turning to `CCOP(=S)(OCC)SC1OCCOC1SP(=S)(OCC)OCC` (stereo unspecified), the outcome is “active; positive”.

For `Cc1ccc2c(ccc3ccccc32)c1`, the outcome is “active; positive”.

Consider `Cc1ccccc1N=Nc1c(O)ccc2ccccc12`, for which the outcome is “active; positive”.

On to `C1CCCCC1`, for which the outcome was “inactive; negative”.

Take `CCC=CC#N`: the outcome is “inactive; negative”.

Regarding `O=C(O)c1ccc(O)cc1O`, the outcome is “inactive; negative”.

For the compound `CCCCC(CC)COC(=O)c1ccc(N(C)C)cc1` (stereo unspecified), the outcome was “inactive; negative”.

On to `c1ccc(Nc2ccccc2)cc1`, for which the outcome was “inactive; negative”.

As to `O=S(=O)(O)c1cc(N=Nc2c(O)ccc3ccccc23)ccc1-c1ccc(N=Nc2c(O)ccc3ccccc23)cc1S(=O)(=O)O`, the outcome is “inactive; negative”.

As to `NCCCNCCCN`, the outcome was “inactive; negative”.

Consider `OCCOc1ccccc1`, for which the outcome is “inactive; negative”.

For `CCCCCO`, the outcome is “inactive; negative”.

`Clc1ccc(N=Nc2ccc(Cl)c(Cl)c2)cc1Cl`: the outcome was “active; positive”.

Take `CC(C)(C)C(=O)C1C(=O)c2ccccc2C1=O`: the outcome is “inactive; negative”.

Regarding `C1CC2OC2CC1C1CO1` (stereo unspecified), the outcome is “active; positive”.

On to `NCN`, for which the outcome was “active; positive”.

Regarding `S=C1NC=NC2N=CNC12` (stereo unspecified), the outcome was “active; positive”.

As to `Nc1cc(Cl)cc(Cl)c1`, the outcome was “inactive; negative”.

Take `O=CC=O`: the outcome was “active; positive”.

For `CCN(CC)C(=O)c1cccc(C)c1`, the outcome was “inactive; negative”.

With `C=C1CC/C=C(\C)CC[C@@H]2[C@@H]1CC2(C)C`, the outcome is “inactive; negative”.
